This is an account of results in patent publication US11981658B2, “Substituted aminopyridine compounds as EGFR inhibitors” (YUHAN CORPORATION, priority 2021, dated 2024).

Experiment [1] has as its target EGFR L858R/T790M/C797S (Homo sapiens, UniProt P00533, C797S/L858R/T790M). The experiment can be described thus: Biochemical EGFR kinase inhibition assay (Lance Ultra TR-FRET), triple mutant L858R/T790M/C797S. The method, boiled down: (§1)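 Step 1: compound in kinase buffer, 0.003–10 μM. Step 2: kinase reaction 1 h at room temperature. Step 4: TR-FRET read at 615/665 nm; IC50 calculated.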
On the technique in general: In TR-FRET formats the signal depends on donor and acceptor labels being close together.

The target in experiment [2] is EGFR wildtype (WT) (Homo sapiens, UniProt P00533). Description: Biochemical EGFR kinase inhibition assay (Lance Ultra TR-FRET), wildtype. In outline:
as §1

The target in experiment [3] is EGFR L858R/C797S (Homo sapiens, UniProt P00533, C797S/L858R). Description: Biochemical EGFR kinase inhibition assay (Lance Ultra TR-FRET), double mutant L858R/C797S. In outline:
as §1

The target in experiment [4] is EGFR Del19/C797S (Homo sapiens, UniProt P00533, C797S/DEL746-750). The experiment can be described thus: Biochemical EGFR kinase inhibition assay (Lance Ultra TR-FRET), double mutant del19/C797S. The method, boiled down: as §1
The target in experiment [5] is EGFR Del19/T790M/C797S (Homo sapiens, UniProt P00533, C797S/DEL746-750/T790M). The experiment can be described thus: Biochemical EGFR kinase inhibition assay (Lance Ultra TR-FRET), triple mutant del19/T790M/C797S. The method, boiled down:
as §1

The mark [6] stands for this setting: IC50 L858R/T790M/C797S (nM), 100 μM ATP.
Where [7] appears, read: IC50 L858R/C797S (nM), 100 μM ATP.
Setting [8] is: IC50 Del19/C797S (nM), 100 μM ATP.
[9] abbreviates: IC50 Del19/T790M/C797S (nM), 100 μM ATP.
[10] abbreviates: Km ATP, read-out: IC50 L858R/T790M/C797S (nM), Km ATP.
Where [11] appears, read: Km ATP, read-out: IC50 WT (nM), Km ATP.
[12] abbreviates: Km ATP, read-out: IC50 L858R/C797S (nM), Km ATP.
Setting [13] is: Km ATP, read-out: IC50 Del19/C797S (nM), Km ATP.
The mark [14] stands for this setting: Km ATP, read-out: IC50 Del19/T790M/C797S (nM), Km ATP.
Setting [15] is: Km ATP, read-out: IC50 L858R/T790M/C797S (nM) Km ATP.
Setting [16] is: Km ATP, read-out: IC50 WT (nM) Km ATP.
[17] abbreviates: Km ATP, read-out: IC50 L858R/C797S (nM) Km ATP.
Where [18] appears, read: Km ATP, read-out: IC50 Del19/C797S (nM) Km ATP.
Where [19] appears, read: Km ATP, read-out: IC50 Del19/T790M/C797S (nM) Km ATP.

Structures are written as SMILES. Like-named read-outs stand apart in the source and are kept apart here.

Sequence of EGFR wildtype (WT) (P00533 25-1210): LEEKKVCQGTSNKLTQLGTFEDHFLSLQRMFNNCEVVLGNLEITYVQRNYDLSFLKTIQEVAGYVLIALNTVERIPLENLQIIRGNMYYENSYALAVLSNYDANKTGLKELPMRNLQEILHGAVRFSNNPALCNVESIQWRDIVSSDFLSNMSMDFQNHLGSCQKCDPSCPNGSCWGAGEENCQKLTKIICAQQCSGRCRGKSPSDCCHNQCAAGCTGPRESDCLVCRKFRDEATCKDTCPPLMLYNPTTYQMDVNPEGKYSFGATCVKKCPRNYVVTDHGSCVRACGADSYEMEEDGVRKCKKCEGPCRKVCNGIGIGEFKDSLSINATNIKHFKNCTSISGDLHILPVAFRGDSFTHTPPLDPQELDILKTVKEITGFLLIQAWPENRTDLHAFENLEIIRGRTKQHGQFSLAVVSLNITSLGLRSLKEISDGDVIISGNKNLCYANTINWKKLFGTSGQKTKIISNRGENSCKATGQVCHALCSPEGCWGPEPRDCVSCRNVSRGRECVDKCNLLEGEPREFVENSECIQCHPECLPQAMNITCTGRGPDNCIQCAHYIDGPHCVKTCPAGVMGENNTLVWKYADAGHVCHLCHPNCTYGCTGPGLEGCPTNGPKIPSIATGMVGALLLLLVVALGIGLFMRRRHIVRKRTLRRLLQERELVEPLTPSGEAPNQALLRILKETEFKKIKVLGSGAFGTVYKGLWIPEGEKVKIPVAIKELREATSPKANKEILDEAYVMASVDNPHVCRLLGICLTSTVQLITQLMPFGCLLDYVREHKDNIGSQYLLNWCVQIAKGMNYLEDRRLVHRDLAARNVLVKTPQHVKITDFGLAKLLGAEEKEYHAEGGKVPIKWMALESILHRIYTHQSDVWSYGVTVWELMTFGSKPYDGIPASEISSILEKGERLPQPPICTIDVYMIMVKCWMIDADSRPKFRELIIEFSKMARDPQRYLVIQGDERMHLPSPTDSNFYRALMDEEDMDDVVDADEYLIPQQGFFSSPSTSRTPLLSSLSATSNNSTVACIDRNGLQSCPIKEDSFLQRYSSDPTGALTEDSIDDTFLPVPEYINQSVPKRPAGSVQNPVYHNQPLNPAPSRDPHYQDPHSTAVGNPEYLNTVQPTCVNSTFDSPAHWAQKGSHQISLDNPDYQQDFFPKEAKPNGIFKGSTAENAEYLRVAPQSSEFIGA
Sequence of EGFR Del19/T790M/C797S (P00533 with tags, fused parts or gaps DEL746-750/T790M/C797S): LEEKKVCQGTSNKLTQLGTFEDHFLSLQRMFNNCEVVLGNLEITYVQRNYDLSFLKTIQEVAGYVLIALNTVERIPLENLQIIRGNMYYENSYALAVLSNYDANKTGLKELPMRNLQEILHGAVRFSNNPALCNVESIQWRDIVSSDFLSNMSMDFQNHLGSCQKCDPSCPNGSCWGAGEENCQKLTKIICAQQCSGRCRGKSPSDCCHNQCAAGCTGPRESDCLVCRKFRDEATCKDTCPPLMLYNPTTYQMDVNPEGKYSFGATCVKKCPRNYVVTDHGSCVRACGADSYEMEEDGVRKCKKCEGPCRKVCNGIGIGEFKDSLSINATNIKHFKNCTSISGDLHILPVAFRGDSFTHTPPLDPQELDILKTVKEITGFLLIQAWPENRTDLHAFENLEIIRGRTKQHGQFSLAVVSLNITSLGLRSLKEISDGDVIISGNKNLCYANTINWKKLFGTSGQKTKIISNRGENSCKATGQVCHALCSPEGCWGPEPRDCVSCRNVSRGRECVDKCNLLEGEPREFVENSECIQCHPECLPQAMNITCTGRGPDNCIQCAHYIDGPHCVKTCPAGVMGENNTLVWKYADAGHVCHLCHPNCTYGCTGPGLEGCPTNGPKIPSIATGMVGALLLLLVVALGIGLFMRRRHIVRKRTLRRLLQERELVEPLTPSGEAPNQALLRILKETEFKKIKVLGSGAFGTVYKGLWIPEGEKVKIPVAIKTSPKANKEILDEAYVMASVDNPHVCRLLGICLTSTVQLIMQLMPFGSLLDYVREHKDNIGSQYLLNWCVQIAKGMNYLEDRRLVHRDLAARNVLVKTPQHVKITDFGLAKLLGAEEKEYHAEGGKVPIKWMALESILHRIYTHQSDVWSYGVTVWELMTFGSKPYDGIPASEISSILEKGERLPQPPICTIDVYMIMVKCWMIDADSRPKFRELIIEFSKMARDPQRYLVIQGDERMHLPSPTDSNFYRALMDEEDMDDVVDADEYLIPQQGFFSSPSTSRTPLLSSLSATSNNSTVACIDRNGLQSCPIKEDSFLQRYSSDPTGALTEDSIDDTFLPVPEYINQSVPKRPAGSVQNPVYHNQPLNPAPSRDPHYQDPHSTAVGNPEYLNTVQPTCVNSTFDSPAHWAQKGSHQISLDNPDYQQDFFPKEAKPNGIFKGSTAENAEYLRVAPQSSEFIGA
Sequence of EGFR L858R/T790M/C797S (P00533 25-1210 T790M/C797S/L858R): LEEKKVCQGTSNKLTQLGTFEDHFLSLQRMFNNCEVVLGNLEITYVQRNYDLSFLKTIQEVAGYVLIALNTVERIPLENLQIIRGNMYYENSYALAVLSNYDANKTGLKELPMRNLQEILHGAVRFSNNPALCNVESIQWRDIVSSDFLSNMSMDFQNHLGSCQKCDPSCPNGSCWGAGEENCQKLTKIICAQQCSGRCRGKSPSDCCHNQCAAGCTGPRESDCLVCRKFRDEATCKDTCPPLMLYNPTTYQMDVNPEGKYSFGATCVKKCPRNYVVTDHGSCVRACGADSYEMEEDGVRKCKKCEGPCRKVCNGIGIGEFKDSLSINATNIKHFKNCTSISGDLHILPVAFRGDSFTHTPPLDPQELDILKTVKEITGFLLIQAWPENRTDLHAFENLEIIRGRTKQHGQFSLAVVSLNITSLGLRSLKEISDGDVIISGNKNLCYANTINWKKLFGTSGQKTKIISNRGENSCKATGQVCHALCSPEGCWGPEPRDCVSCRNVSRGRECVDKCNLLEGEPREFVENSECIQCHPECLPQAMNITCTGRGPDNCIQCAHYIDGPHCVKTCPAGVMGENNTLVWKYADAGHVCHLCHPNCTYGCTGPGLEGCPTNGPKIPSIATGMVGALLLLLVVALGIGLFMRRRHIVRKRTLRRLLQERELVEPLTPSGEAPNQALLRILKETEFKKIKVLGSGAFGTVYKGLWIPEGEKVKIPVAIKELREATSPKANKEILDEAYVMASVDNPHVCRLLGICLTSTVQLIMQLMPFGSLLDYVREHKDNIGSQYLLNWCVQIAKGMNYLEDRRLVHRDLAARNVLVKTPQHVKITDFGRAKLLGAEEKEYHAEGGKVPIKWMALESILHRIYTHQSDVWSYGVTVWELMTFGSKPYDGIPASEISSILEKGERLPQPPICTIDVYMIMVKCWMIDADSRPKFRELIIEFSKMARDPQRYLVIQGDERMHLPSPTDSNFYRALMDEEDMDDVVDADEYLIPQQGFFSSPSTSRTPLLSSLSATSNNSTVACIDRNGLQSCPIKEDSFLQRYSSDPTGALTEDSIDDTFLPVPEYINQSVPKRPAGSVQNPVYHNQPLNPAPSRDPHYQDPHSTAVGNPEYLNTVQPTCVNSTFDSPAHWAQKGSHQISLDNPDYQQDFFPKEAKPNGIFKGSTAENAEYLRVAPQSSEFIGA
Sequence of EGFR Del19/C797S (P00533 with tags, fused parts or gaps DEL746-750/C797S): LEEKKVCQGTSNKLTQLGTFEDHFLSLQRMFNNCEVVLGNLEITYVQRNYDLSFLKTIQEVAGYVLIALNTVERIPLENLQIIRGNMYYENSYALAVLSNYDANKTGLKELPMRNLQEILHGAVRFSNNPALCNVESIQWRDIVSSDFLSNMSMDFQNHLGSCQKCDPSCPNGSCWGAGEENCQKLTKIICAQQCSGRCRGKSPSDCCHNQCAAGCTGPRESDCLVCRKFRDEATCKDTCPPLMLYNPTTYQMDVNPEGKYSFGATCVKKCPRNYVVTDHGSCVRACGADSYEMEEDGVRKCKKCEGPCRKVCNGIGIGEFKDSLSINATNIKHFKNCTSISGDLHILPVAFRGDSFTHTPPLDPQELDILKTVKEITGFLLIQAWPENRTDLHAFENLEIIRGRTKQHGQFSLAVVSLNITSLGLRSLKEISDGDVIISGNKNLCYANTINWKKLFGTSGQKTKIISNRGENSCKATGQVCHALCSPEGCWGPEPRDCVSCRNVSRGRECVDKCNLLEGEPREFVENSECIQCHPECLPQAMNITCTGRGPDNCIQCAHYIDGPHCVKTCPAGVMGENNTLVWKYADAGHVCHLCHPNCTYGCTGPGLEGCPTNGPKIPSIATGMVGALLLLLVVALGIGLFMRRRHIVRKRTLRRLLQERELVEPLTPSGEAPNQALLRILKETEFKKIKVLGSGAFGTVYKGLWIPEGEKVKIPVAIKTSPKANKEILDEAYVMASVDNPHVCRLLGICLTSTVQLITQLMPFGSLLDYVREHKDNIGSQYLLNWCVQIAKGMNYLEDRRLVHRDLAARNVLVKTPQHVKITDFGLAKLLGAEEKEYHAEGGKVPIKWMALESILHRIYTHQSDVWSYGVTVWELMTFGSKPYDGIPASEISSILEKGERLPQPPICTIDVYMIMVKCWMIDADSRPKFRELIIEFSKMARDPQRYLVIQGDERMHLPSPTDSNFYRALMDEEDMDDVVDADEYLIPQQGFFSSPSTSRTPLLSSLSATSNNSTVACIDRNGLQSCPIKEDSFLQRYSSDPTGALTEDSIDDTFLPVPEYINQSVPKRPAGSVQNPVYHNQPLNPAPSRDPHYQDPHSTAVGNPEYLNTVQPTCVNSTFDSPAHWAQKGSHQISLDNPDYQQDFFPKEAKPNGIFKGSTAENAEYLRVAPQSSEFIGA

For `COCCNC1CCN(c2cc(Nc3ccnc(-c4cnn(S(=O)(=O)C5CC5)c4)n3)ncc2C#Cc2cnn(C)c2)CC1` [Example 132, 2-(1-(Cyclopropylsulfonyl)-1H-pyrazol-4-yl)-N-(4-(4-((2-methoxyethyl)amino)piperidin-1-yl)-5-((1-methyl-1H-pyrazol-4-yl)ethynyl)pyridin-2-yl)pyrimidin-4-amine], the IC50 in experiment [1] (setting [6]) is 4.2 nM; in experiment [2] (IC50 WT (nM), 100 μM ATP), > 10000 nM; in experiment [3] (setting [7]), 46.4 nM; in experiment [4] (setting [8]) it was 131 nM; in experiment [5] (setting [9]), 1.3 nM.
On to `CC1(CO)CCN(c2cc(Nc3ccnc(-c4cnn(S(=O)(=O)C5CC5)c4)n3)ncc2C#Cc2cnc(CN3CCOCC3)s2)CC1` [Example 192, (1-(2-((2-(1-(Cyclopropylsulfonyl)-1H-pyrazol-4-yl)pyrimidin-4-yl)amino)-5-((2-(morpholinomethyl)thiazol-5-yl)ethynyl)pyridin-4-yl)-4-methylpiperidin-4-yl)methanol], for which the IC50 in experiment [1] (ATP at Km, read-out: IC50 L858R/T790M/C797S (nM), Km ATP) turned out to be 0.4 nM; in experiment [1] (setting [6]), 1.3 nM; in experiment [2] (ATP at Km, read-out: IC50 WT (nM), Km ATP), 6.1 nM; in experiment [2] (IC50 WT (nM), 100 μM ATP), 1480 nM; in experiment [3] (ATP at Km, read-out: IC50 L858R/C797S (nM), Km ATP), 2.1 nM; in experiment [3] (setting [7]), 4.5 nM. Further, the IC50 in experiment [4] (ATP at Km, read-out: IC50 Del19/C797S (nM), Km ATP) came to 1.1 nM; in experiment [4] (setting [8]), 1.8 nM; in experiment [5] (ATP at Km, read-out: IC50 Del19/T790M/C797S (nM), Km ATP), 1 nM; in experiment [5] (setting [9]), 1.5 nM.
Turning to `O=S(=O)(C1CC1)n1cc(-c2nccc(Nc3cc(NC4CCC(O)CC4)c(C#CC4(O)CCOC4)cn3)n2)cn1` (stereo not drawn) [Example 356, 3-((6-((2-(1-(Cyclopropylsulfonyl)-1H-pyrazol-4-yl)pyrimidin-4-yl)amino)-4-(((1 s, 4s)-4-hydroxycyclohexyl)amino)pyridin-3-yl)ethynyl)tetrahydrofuran-3-ol], the IC50 is 0.3 nM in experiment [1] (setting [6]); 0.1 nM in experiment [1] (setting [10]); 5310 nM in experiment [2] (IC50 WT (nM), 100 μM ATP); 20.1 nM in experiment [2] (setting [11]); 24.5 nM in experiment [3] (setting [7]); 2 nM in experiment [3] (setting [12]). Also, the IC50 in experiment [4] (setting [8]) turned out to be 0.9 nM; in experiment [4] (setting [13]), 0.6 nM; in experiment [5] (setting [9]) it was 0.2 nM; in experiment [5] (setting [14]), 0.2 nM.
In the case of `C[C@]1(O)CC[C@@H](Nc2cc(Nc3ccnc(-c4cnn(S(=O)(=O)C5CC5)c4)n3)ncc2C#Cc2cnn(CC(F)(F)F)c2)CC1` [Example 344, (1s, 4s)-4-((2-((2-(1-(Cyclopropylsulfonyl)-1H-pyrazol-4-yl)pyrimidin-4-yl)amino)-5-((1-(2,2,2-trifluoroethyl)-1H-pyrazol-4-yl)ethynyl)pyridin-4-yl)amino)-1-methylcyclohexan-1-ol], the IC50 was 5 nM in experiment [1] (setting [6]); 3.1 nM in experiment [1] (setting [10]); > 10000 nM in experiment [2] (IC50 WT (nM), 100 μM ATP); 200 nM in experiment [2] (setting [11]); 112 nM in experiment [3] (setting [7]); 24.1 nM in experiment [3] (setting [12]). For the same molecule, the IC50 stood at 50.6 nM in experiment [4] (setting [8]), 31.3 nM in experiment [4] (setting [13]), 11.5 nM in experiment [5] (setting [9]) and 7.9 nM in experiment [5] (setting [14]).
Take `CC1OCCC1C#Cc1cnc(Nc2ccnc(-c3cnn(S(=O)(=O)C4CC4)c3)n2)cc1NCC1CCC(O)CC1` (stereo not drawn) [Example 431, (1 r,4r)-4-(((2-((2-(1-(Cyclopropylsulfonyl)-1H-pyrazol-4-yl)pyrimidin-4-yl)amino)-5-((2-methyltetrahydrofuran-3-yl)ethynyl)pyridin-4-yl)amino)methyl)cyclohexan-1-ol]: the IC50 was 4.7 nM in experiment [1] (setting [6]); 1 nM in experiment [1] (setting [10]); > 10000 nM in experiment [2] (IC50 WT (nM), 100 μM ATP); 2090 nM in experiment [3] (setting [7]); 78.1 nM in experiment [4] (setting [8]); 2.7 nM in experiment [5] (setting [9]). Moreover, the IC50 in experiment [5] (setting [14]) was 1.2 nM.
Turning to `CC(C)n1cc(C#Cc2cnc(Nc3ccnc(-c4cnn(S(=O)(=O)C5CC5)c4)n3)cc2OC[C@H]2CC[C@H](CN(C)C)CC2)cn1` [Example 59, 2-(1-(Cyclopropylsulfonyl)-1H-pyrazol-4-yl)-N-(4-(((1r,4r)-4-((dimethylamino)methyl)cyclohexyl)methoxy)-5-((1-isopropyl-1H-pyrazol-4-yl)ethynyl)pyridin-2-yl)pyrimidin-4-amine], the IC50 in experiment [1] (setting [6]) was 0.7 nM; in experiment [1] (setting [15]), 0.1 nM; in experiment [2] (IC50 WT (nM), 100 μM ATP) it was > 10000 nM; in experiment [2] (setting [16]), 19.2 nM; in experiment [3] (setting [17]), 1.7 nM; in experiment [4] (setting [8]), 2.6 nM. In addition, the IC50 was determined as 1.1 nM in experiment [4] (setting [18]), 1.4 nM in experiment [5] (setting [9]) and 0.6 nM in experiment [5] (setting [19]).
Take `C[C@H](CCO)Nc1cc(Nc2ccnc(-c3cnn(S(=O)(=O)C4CC4)c3)n2)ncc1C#Cc1cnn(C)c1` [Example 4, (R)-3-((2-((2-(1-(Cyclopropylsulfonyl)-1H-pyrazol-4-yl)pyrimidin-4-yl)amino)-5-((1-methyl-1H-pyrazol-4-yl)ethynyl)pyridin-4-yl)amino)butan-1-ol]: the IC50 was 12.6 nM in experiment [1] (setting [6]); > 10000 nM in experiment [2] (IC50 WT (nM), 100 μM ATP); 103 nM in experiment [3] (setting [7]); 38.6 nM in experiment [4] (setting [8]); 1.1 nM in experiment [5] (setting [9]).
Regarding `Cn1cc(C#Cc2cnc(Nc3ccnc(-c4cnn(S(=O)(=O)C5CC5)c4)n3)cc2N2CCC(NCC(F)F)CC2)cn1` [Example 126, 2-(1-(Cyclopropylsulfonyl)-1H-pyrazol-4-yl)-N-(4-(4-((2,2-difluoroethyl)amino)piperidin-1-yl)-5-((1-methyl-1H-pyrazol-4-yl)ethynyl)pyridin-2-yl)pyrimidin-4-amine], the IC50 was 0.9 nM in experiment [1] (setting [6]); 0.3 nM in experiment [1] (setting [15]); > 10000 nM in experiment [2] (IC50 WT (nM), 100 μM ATP); 35 nM in experiment [2] (setting [16]); 11.5 nM in experiment [3] (setting [7]); 1.8 nM in experiment [3] (setting [17]). In addition, the IC50 in experiment [4] (setting [8]) was 1.6 nM; in experiment [4] (setting [18]), 1.4 nM; in experiment [5] (setting [9]), 1.7 nM; in experiment [5] (setting [19]), 0.6 nM.
With `CC1(CO)CCN(c2cc(Nc3ccnc(-c4cnn(S(=O)(=O)C5CC5)c4)n3)ncc2C#CC2CCN(S(C)(=O)=O)CC2)CC1` [Example 389, (1-(2-((2-(1-(Cyclopropylsulfonyl)-1H-pyrazol-4-yl)pyrimidin-4-yl)amino)-5-((1-(methylsulfonyl)piperidin-4-yl)ethynyl)pyridin-4-yl)-4-methylpiperidin-4-yl)methanol], the IC50 in experiment [1] (setting [6]) came to 0.7 nM; in experiment [1] (setting [10]) it was 0.1 nM; in experiment [2] (IC50 WT (nM), 100 μM ATP) it was 5200 nM; in experiment [2] (setting [11]), 4.6 nM; in experiment [3] (setting [7]), 14.5 nM; in experiment [3] (setting [12]), 1.6 nM. Besides, the IC50 in experiment [4] (setting [8]) is 2.1 nM; in experiment [4] (setting [13]), 0.4 nM; in experiment [5] (setting [9]) it was 0.5 nM; in experiment [5] (setting [14]), 0.3 nM.
As for `Cn1cnc(C#Cc2cnc(Nc3ccnc(-c4cnn(S(=O)(=O)C5CC5)c4)n3)cc2NCC(C)(C)CO)c1` [Example 224, 3-((2-((2-(1-(Cyclopropylsulfonyl)-1H-pyrazol-4-yl)pyrimidin-4-yl)amino)-5-((1-methyl-1H-imidazol-4-yl)ethynyl)pyridin-4-yl)amino)-2,2-dimethylpropan-1-ol], the IC50 in experiment [1] (setting [6]) was 26.1 nM; in experiment [2] (IC50 WT (nM), 100 μM ATP) it was > 10000 nM; in experiment [3] (setting [7]), 286 nM; in experiment [4] (setting [8]) it was 37.7 nM; in experiment [5] (setting [9]), 1.8 nM.
The matching figures for `O=S(=O)(C1CC1)n1cc(-c2nccc(Nc3cc(N4CCC(CCO)CC4)c(C#Cc4cnn(C5CC5(F)F)c4)cn3)n2)cn1` (stereo not drawn) [Example 84, 2-(1-(2-((2-(1-(Cyclopropylsulfonyl)-1H-pyrazol-4-yl)pyrimidin-4-yl)amino)-5-((1-(2,2-difluorocyclopropyl)-1H-pyrazol-4-yl)ethynyl)pyridin-4-yl)piperidin-4-yl)ethan-1-ol]: 6.7 nM, > 10000 nM, 33 nM, 7.2 nM and 3.3 nM.
Regarding `CC1OCCC1C#Cc1cnc(Nc2ccnc(-c3cnn(S(=O)(=O)C4CC4)c3)n2)cc1NC1CCC(CO)CC1` (stereo not drawn) [Example 430, ((1s,4s)-4-((2-((2-(1-(Cyclopropylsulfonyl)-1H-pyrazol-4-yl)pyrimidin-4-yl)amino)-5-((2-methyltetrahydrofuran-3-yl)ethynyl)pyridin-4-yl)amino)cyclohexyl)methanol], the IC50 in experiment [1] (setting [6]) is 0.9 nM; in experiment [1] (setting [10]), 0.3 nM; in experiment [2] (IC50 WT (nM), 100 μM ATP) it was 7480 nM; in experiment [2] (setting [11]) it was 6.9 nM; in experiment [3] (setting [7]), 107 nM; in experiment [3] (setting [12]) it was 4.3 nM. Also, the IC50 in experiment [4] (setting [8]) amounted to 3.8 nM; in experiment [4] (setting [13]), 1.3 nM; in experiment [5] (setting [9]), 1 nM; in experiment [5] (setting [14]), 0.6 nM.
